Experiments:
[1] = cited from earlier work
[2] = Phase-solubility study of nicardipine HCl and CAPTISOL as a function of pH; assay type: physicochemical; details: FIG. 1
Protocol: in this phase-solubility study, nicardipine HCl, in amounts that exceeded its solubility, was taken into vials containing buffers in the pH range of 3.6-7.4 and containing CAPTISOL® in the concentration range of 2-40% w/v. These evaluations were also done for buffer solutions containing no CAPTISOL®. The vials were sealed and shaken at room temperature until equilibrium was reached. Subsequently, test sample aliquots were withdrawn, filtered, and drug concentration was determined by RP-HPLC with UV detection.

SMILES	solubility in water [1]	solubility as a function of CAPTISOL concentration ([2]; at a given pH value, CAPTISOL 2-40% w/v)	solubility as a function of pH ([2]; buffers pH 3.6-7.4, room temperature)
COC(=O)C1=C(C)NC(C)=C(C(=O)OCCN(C)Cc2ccccc2)C1c1cccc([N+](=O)[O-])c1 (stereo not drawn) [Nicardipine, nicardipine]	only slightly soluble in water		
COC(=O)C1=C(C)NC(C)=C(C(=O)OCCN(C)Cc2ccccc2)C1c1cccc([N+](=O)[O-])c1.Cl (racemic) [nicardipine HCl, (±)-2-(benzyl-methylamino)ethyl methyl 1,4-dihydro-2,6-dimethyl-4-(m-nitrophenyl)-3,5-pyridinedicarboxylate monohydrochloride]		increased	decreased with increased pH
